Results reported in article PMC11093223, “Cargo selective vesicle tethering: The structural basis for binding of specific cargo proteins by the Golgi tether component TBC1D23” (Science Advances, 2024).
“Also recorded” adds a separate entry of the source. Read-outs that look alike come from different tables or passages of the source. Residues, ends and D or L forms follow the SMILES beside them.

Columns and labels:
[1] = biological target: T1, TBC1D23 C-terminal domain (Mus musculus, UniProt Q8K0F1); assay: ITC of cargo and mutant syntaxin-16 peptides binding to wild-type TBC1D23 C-terminal domain; conditions: for Kd / KD (μM): 20°C; for KD (μM): peptide (0.8-5 mM) titrated into 100 μM domain, 100 mM NaCl, 100 mM tris pH 7.4, 1 mM TCEP, mean of three independent runs
T1 construct: TBC1D23 C-terminal domains were gel-filtered into buffer; GST (N, cleaved yes); made in house; host or cells: E. coli BL21 pLysS
Procedure: (§1) Experiments were performed using a Nano ITC machine from TA Instruments. TBC1D23 C-terminal domains were gel-filtered into buffer composed of 100 mM NaCl, 100 mM tris (pH 7.4), and 1 mM tris(2-carboxyethyl)phosphine (TCEP). Peptides were dissolved in the same batch of buffer. Both the wild-type and mutant C-terminal domains were concentrated to 100 μM (1.4 mg/ml) with peptide concentration varying between 0.8 and 5 mM (depending on the peptide). Peptides were titrated into TBC1D23 C-terminal domains with 20 injections of 2.4 μl each separated by 300-s intervals. Experiments were conducted at 20°C. […] Data were exported to GraphPad Prism for figure generation.
(§2) Recombinant proteins were expressed in BL21 plyS E. coli grown in shaking 2× TY medium at 37°C. Expression was induced with 0.2 mM IPTG, and cells were grown overnight at 22°C. Cells were resuspended in buffer A [250 mM NaCl, 20 mM tris (pH 7.4), and 1 mM DTT] supplemented with 4-benzenesulfonyl fluoride hydrochloride, MnCl2 and deoxyribonuclease I. Cell pellets were lysed using a cell disruptor (Constant Systems) before clarification by ultracentrifugation (104,350 relative centrifugal force) for 45 min. The supernatant was batch bound to glutathione-Sepharose resin (Cytiva) in buffer A before washing with 400 ml of buffer A and overnight cleavage of the GST-tag with thrombin at room temperature. The resultant flow through was concentrated for gel filtration Superdex 200 column (GE Healthcare) into either buffer A for crystallization or into ITC buffer [100 mM NaCl, 100 mM tris (pH 7.4), and 1 mM TCEP].

[2] = biological target: T2, TBC1D23 C-terminal domain K672A (Mus musculus, UniProt Q8K0F1, K672A); assay: ITC of syntaxin-16 peptide binding to TBC1D23 C-terminal domain mutant K672A; conditions: mean of three runs, read-out: Mean affinity
T2 construct: Both the wild-type and mutant C-terminal domains were concentrated to 100 μM; GST (N, cleaved yes); made in house; host or cells: E. coli BL21 pLysS
Procedure: as §1
as §2, with “The resultant flow through was concentrated for gel filtration Superdex 200 column (GE Healthcare) into either buffer A for crystallization or into ITC buffer [100 mM NaCl, 100 mM tris (pH 7.4), and 1 mM TCEP].” left out

[3] = biological target: T3, TBC1D23 C-terminal domain V626D (Mus musculus, UniProt Q8K0F1, V626D); assay: ITC of syntaxin-16 peptide binding to TBC1D23 C-terminal domain mutant V626D
T3 construct: Both the wild-type and mutant C-terminal domains were concentrated to 100 μM; GST (N, cleaved yes); made in house; host or cells: E. coli BL21 pLysS
Procedure: as §1
as §2, with “The resultant flow through was concentrated for gel filtration Superdex 200 column (GE Healthcare) into either buffer A for crystallization or into ITC buffer [100 mM NaCl, 100 mM tris (pH 7.4), and 1 mM TCEP].” left out

[4] = biological target: T4, TBC1D23 C-terminal domain I675W (Mus musculus, UniProt Q8K0F1, I675W); assay: ITC of syntaxin-16 peptide binding to TBC1D23 C-terminal domain mutant I675W
T4 construct: GST (N, cleaved yes); made in house; host or cells: E. coli BL21 pLysS
Procedure: as §1
as §2, with “The resultant flow through was concentrated for gel filtration Superdex 200 column (GE Healthcare) into either buffer A for crystallization or into ITC buffer [100 mM NaCl, 100 mM tris (pH 7.4), and 1 mM TCEP].” left out

[5] = pH 7.4, bound given for peptides without measurable binding, read-out: Affinity
[6] = pH 7.4, mean of three runs, read-out: Mean affinity
[7] = bound, no measurable binding, read-out: Affinity

T3 sequence (Q8K0F1 559-684 V626D limits assumed): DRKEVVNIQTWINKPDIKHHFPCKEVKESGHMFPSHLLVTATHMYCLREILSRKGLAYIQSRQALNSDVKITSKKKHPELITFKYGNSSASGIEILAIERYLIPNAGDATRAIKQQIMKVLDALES
T1 sequence (Q8K0F1 559-684 limits assumed): as the sequence (Q8K0F1 559-684 V626D limits assumed) above, with D68V counted along it
T4 sequence (Q8K0F1 559-684 I675W limits assumed): as the sequence (Q8K0F1 559-684 V626D limits assumed) above, with D68V, I117W counted along it
T2 sequence (Q8K0F1 559-684 K672A limits assumed): as the sequence (Q8K0F1 559-684 V626D limits assumed) above, with D68V, K114A counted along it

Kd [1, 5]	KD (μM) [1]	Kd [1, 6]	Structure (SMILES)	other results
> 200 µM	no binding		CC(C)[C@H](NC(=O)[C@@H](NC(=O)[C@H](CO)NC(=O)[C@H](Cc1ccc(O)cc1)NC(=O)[C@@H](NC(=O)[C@@H](NC(=O)[C@H](CC(N)=O)NC(=O)[C@H](C)NC(=O)[C@@H]1CCCN1C(=O)[C@H](CC(=O)O)NC(=O)[C@@H](N)CCC(=O)O)[C@@H](C)O)C(C)C)[C@@H](C)O)C(=O)N[C@@H](CCC(=O)O)C(=O)O [SLAMF7_TVY] (H-EDPANTVYSTVE-OH; N-terminus and C-terminus assumed)	
		10.6 µM	CC(C)C[C@H](NC(=O)[C@@H](NC(=O)[C@H](CCC(=O)O)NC(=O)[C@H](CCC(=O)O)NC(=O)[C@@H](N)CCC(=O)O)[C@@H](C)O)C(=O)N[C@@H](Cc1ccc(O)cc1)C(=O)N[C@@H](CO)C(=O)N[C@@H](CO)C(=O)N[C@@H](CCCCN)C(=O)N[C@@H](Cc1c[nH]cn1)C(=O)O [CPD_TLY] (H-EEETLYSSKH-OH)	
> 200 µM			CC(C)C[C@H](NC(=O)[C@@H](NC(=O)[C@H](CC(N)=O)NC(=O)[C@H](C)NC(=O)[C@H](C)N)[C@@H](C)O)C(=O)N[C@@H](Cc1ccc(O)cc1)C(=O)N[C@@H](Cc1c[nH]cn1)C(=O)N[C@@H](CCCNC(=N)N)C(=O)NCC(=O)N[C@@H](Cc1ccccc1)C(=O)N[C@H](C(=O)N[C@@H](CCC(=O)O)C(=O)N[C@@H](CC(=O)O)C(=O)O)[C@@H](C)O [STX16_DDAA] (H-AANTLYHRGFTED-OH; N-terminus and C-terminus assumed)	
		15.7 µM	CC(C)[C@H](NC(=O)[C@@H](NC(=O)[C@H](CCC(=O)O)NC(=O)[C@H](CCC(=O)O)NC(=O)[C@H](CC(=O)O)NC(=O)[C@H](CO)NC(=O)[C@@H](N)CC(=O)O)[C@@H](C)O)C(=O)N[C@@H](Cc1ccccc1)C(=O)N[C@@H](CCC(=O)O)C(=O)N[C@@H](CO)C(=O)O [FAM174C_TVF] (H-DSDEETVFES-OH)	

The remaining lines, values behind:

Structure (SMILES)	Kd [1, 5]	KD (μM) [1]	Kd [1, 6]	other results
C[C@H](NC(=O)[C@@H](NC(=O)[C@H](CC(N)=O)NC(=O)[C@H](CC(=O)O)NC(=O)[C@@H](N)CC(=O)O)[C@@H](C)O)C(=O)N[C@@H](Cc1ccc(O)cc1)C(=O)N[C@@H](Cc1c[nH]cn1)C(=O)N[C@@H](CCCNC(=N)N)C(=O)NCC(=O)N[C@@H](Cc1ccccc1)C(=O)N[C@H](C(=O)N[C@@H](CCC(=O)O)C(=O)N[C@@H](CC(=O)O)C(=O)O)[C@@H](C)O [STX16_LtoA] (H-DDNTAYHRGFTED-OH; N-terminus and C-terminus assumed)	> 200 µM			reduction of binding relative to wild-type syntaxin-16 peptide [1]: > 100 fold
CC(C)C[C@H](NC(=O)[C@@H](NC(=O)[C@H](CC(N)=O)NC(=O)[C@H](CC(=O)O)NC(=O)[C@@H](N)CC(=O)O)[C@@H](C)O)C(=O)N[C@@H](CO)C(=O)N[C@@H](Cc1c[nH]cn1)C(=O)N[C@@H](CCCNC(=N)N)C(=O)NCC(=O)N[C@@H](Cc1ccccc1)C(=O)N[C@H](C(=O)N[C@@H](CCC(=O)O)C(=O)N[C@@H](CC(=O)O)C(=O)O)[C@@H](C)O [STX16_YtoS] (H-DDNTLSHRGFTED-OH; N-terminus and C-terminus assumed)	> 200 µM	No binding		
CC[C@H](C)[C@H](NC(=O)[C@@H](NC(=O)[C@H](CC(=O)O)NC(=O)[C@H](CCC(N)=O)NC(=O)[C@H](CC(=O)O)NC(=O)[C@H](CO)NC(=O)[C@H](CC(=O)O)NC(=O)[C@H](Cc1ccccc1)NC(=O)[C@H](CCC(=O)O)NC(=O)[C@H](CO)NC(=O)[C@@H](N)CCC(=O)O)[C@@H](C)O)C(=O)N[C@@H](Cc1ccccc1)C(=O)O [KIAA0319_TIF] (H-ESEFDSDQDTIF-OH)			35.2 µM	
CSCC[C@H](NC(=O)[C@H](CC(C)C)NC(=O)[C@H](Cc1c[nH]c2ccccc12)NC(=O)[C@H](CCC(=O)O)NC(=O)[C@@H](NC(=O)[C@H](CCC(=O)O)NC(=O)[C@H](CC(N)=O)NC(=O)[C@H](CCC(=O)O)NC(=O)[C@H](CC(=O)O)NC(=O)[C@@H](NC(=O)[C@H](CCC(=O)O)NC(=O)[C@H](CCC(=O)O)NC(=O)[C@@H](N)CCC(=O)O)[C@@H](C)O)[C@@H](C)O)C(=O)O [CIMPR_WLM] (H-EEETDENETEWLM-OH; N-terminus and C-terminus assumed)	> 200 µM	no binding		
C[C@@H](O)[C@H](NC(=O)[C@H](Cc1ccccc1)NC(=O)CNC(=O)[C@H](CCCNC(=N)N)NC(=O)[C@H](Cc1c[nH]cn1)NC(=O)[C@H](Cc1ccc(O)cc1)NC(=O)[C@H](Cc1ccccc1)NC(=O)[C@@H](NC(=O)[C@H](CC(N)=O)NC(=O)[C@H](CC(=O)O)NC(=O)[C@@H](N)CC(=O)O)[C@@H](C)O)C(=O)N[C@@H](CCC(=O)O)C(=O)N[C@@H](CC(=O)O)C(=O)O [STX16_LtoF] (H-DDNTFYHRGFTED-OH)			151 µM	
CC(C)C[C@H](NC(=O)[C@@H](NC(=O)[C@H](CC(N)=O)NC(=O)[C@H](CC(=O)O)NC(=O)[C@@H](N)CC(=O)O)[C@@H](C)O)C(=O)N[C@@H](Cc1c[nH]c2ccccc12)C(=O)N[C@@H](Cc1c[nH]cn1)C(=O)N[C@@H](CCCNC(=N)N)C(=O)NCC(=O)N[C@@H](Cc1ccccc1)C(=O)N[C@H](C(=O)N[C@@H](CCC(=O)O)C(=O)N[C@@H](CC(=O)O)C(=O)O)[C@@H](C)O [STX16_YtoW] (H-DDNTLWHRGFTED-OH)			5.64 µM	
CC(C)C[C@H](NC(=O)[C@@H](NC(=O)[C@H](CC(N)=O)NC(=O)[C@H](CC(=O)O)NC(=O)[C@@H](N)CC(=O)O)[C@@H](C)O)C(=O)N[C@@H](Cc1ccc(O)cc1)C(=O)N[C@@H](Cc1c[nH]cn1)C(=O)N[C@@H](CCCNC(=N)N)C(=O)NCC(=O)N[C@@H](Cc1ccccc1)C(=O)N[C@H](C(=O)N[C@@H](CCC(=O)O)C(=O)N[C@@H](CC(=O)O)C(=O)O)[C@@H](C)O [STX16_TLY] (H-DDNTLYHRGFTED-OH)				Kd [2]: 27.6 µM; KD (μM) ([3]; 20°C, pH 7.4, figure and text, listed as syntaxin-16 peptide): abolishes peptide binding; also recorded: No binding; Kd [3, 7]: > 200 µM; KD (μM) ([4]; 20°C, pH 7.4, figure and text): No binding; Kd [4, 7]: > 200 µM
CC(C)C[C@H](NC(=O)[C@H](C)NC(=O)[C@H](CC(N)=O)NC(=O)[C@H](CC(=O)O)NC(=O)[C@@H](N)CC(=O)O)C(=O)N[C@@H](Cc1ccc(O)cc1)C(=O)N[C@@H](Cc1c[nH]cn1)C(=O)N[C@@H](CCCNC(=N)N)C(=O)NCC(=O)N[C@@H](Cc1ccccc1)C(=O)N[C@H](C(=O)N[C@@H](CCC(=O)O)C(=O)N[C@@H](CC(=O)O)C(=O)O)[C@@H](C)O [STX16_TtoA] (H-DDNALYHRGFTED-OH; N-terminus and C-terminus assumed)	> 200 µM	No binding		
C[C@@H](O)[C@H](NC(=O)[C@H](Cc1ccccc1)NC(=O)CNC(=O)[C@H](CCCNC(=N)N)NC(=O)[C@H](Cc1c[nH]cn1)NC(=O)[C@H](Cc1ccc(O)cc1)NC(=O)[C@H](CO)NC(=O)[C@@H](NC(=O)[C@H](CC(N)=O)NC(=O)[C@H](CC(=O)O)NC(=O)[C@@H](N)CC(=O)O)[C@@H](C)O)C(=O)N[C@@H](CCC(=O)O)C(=O)N[C@@H](CC(=O)O)C(=O)O [STX16_LtoS] (H-DDNTSYHRGFTED-OH; N-terminus and C-terminus assumed)	> 200 µM	No binding		
CC(C)[C@H](NC(=O)[C@@H](NC(=O)[C@H](Cc1ccccc1)NC(=O)[C@H](CC(=O)O)NC(=O)CNC(=O)[C@H](CC(=O)O)NC(=O)[C@H](CCC(=O)O)NC(=O)[C@H](CC(N)=O)NC(=O)[C@H](CCC(=O)O)NC(=O)[C@H](CCC(=O)O)NC(=O)[C@@H](N)CC(=O)O)[C@@H](C)O)C(=O)N[C@@H](Cc1ccc(O)cc1)C(=O)N[C@@H](CCC(=O)O)C(=O)N[C@@H](CS)C(=O)O [NPDC1_TVY] (H-DEENEDGDFTVYEC-OH)			2.91 µM	
